Results taken from US20100240768A1, “NOVEL NUTRACEUTICALCOMPOSITIONS CONTAINING THYMOL AND/OR P-CYMENE OR PLANT EXTRACTS FOR COGNITION” (priority 2007, published 2010).
Like-named read-outs stand apart in the source and are kept apart here.

Assays:
[1] = molecular target: T1, human glycine transporter 1b (GlyT1) (Homo sapiens, UniProt P48067); assay: Inhibition of glycine transporter 1 in a cellular assay ([3H]glycine uptake into CHO cells); assay type: cell-based; conditions: for IC50 for tritiated glycine uptake: CHO cells expressing human GlyT1b, pure compounds, mean±s.e.m.; for IC50: dose-response curve, internalization of radioactive glycine into the cells, read-out: IC50 (FIG. 1, GlyT1 inhibition assay)
T1 construct: expressed in transfected cells
T1 sequence (P48067 1-652 isoform P48067-3): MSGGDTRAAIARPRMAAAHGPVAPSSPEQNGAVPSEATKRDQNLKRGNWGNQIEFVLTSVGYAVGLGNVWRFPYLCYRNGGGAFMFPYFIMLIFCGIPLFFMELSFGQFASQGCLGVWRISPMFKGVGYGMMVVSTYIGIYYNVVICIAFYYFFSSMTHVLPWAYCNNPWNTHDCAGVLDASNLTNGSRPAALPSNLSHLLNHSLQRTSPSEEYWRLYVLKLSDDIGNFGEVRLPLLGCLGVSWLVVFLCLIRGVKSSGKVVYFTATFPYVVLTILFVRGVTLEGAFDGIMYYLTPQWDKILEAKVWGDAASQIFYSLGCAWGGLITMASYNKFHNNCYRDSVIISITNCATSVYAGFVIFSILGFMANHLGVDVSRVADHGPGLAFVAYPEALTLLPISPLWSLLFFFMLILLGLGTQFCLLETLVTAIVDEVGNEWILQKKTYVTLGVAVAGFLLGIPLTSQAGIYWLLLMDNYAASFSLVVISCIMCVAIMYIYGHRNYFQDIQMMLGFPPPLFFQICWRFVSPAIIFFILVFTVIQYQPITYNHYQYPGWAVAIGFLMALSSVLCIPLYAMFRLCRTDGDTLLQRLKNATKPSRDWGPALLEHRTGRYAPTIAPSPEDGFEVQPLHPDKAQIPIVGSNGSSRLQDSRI
Experimental: Cells were harvested by trypsinisation one day prior to the assay and were seeded in the above mentioned medium. […] Glycine uptake into the cells was determined by addition of 60 nM radio-labelled [^3H] glycine (Amersham Biosciences GE Healthcare, Slough, UK) and incubation for 30 minutes at room temperature. Following removal of unincorporated label by gentle washing three times with the above buffer, incorporated glycine was quantified by liquid scintillation counting. […] Louis, USA) were used as known inhibitors of GlyT1.

pCREB = assay: Hippocampal slice cultures, synaptic marker pCREB (immunohistochemistry); assay type: cell-based, Wistar rats; conditions: 15 min treatment of slices after 48 h culture; compared to sister cultures treated with buffer
Experimental: (§1) Seven-day-old Wistar rats were decapitated using a guillotine. In less than 1 minute the skull was opened, the cerebral hemispheres were separated and transferred and both hippocampi were dissected and transferred into ice cold buffer containing 137 mM NaCl, 5 mM KCl, 0.85 mM Na2HPO4, 1.5 mM CaCl2, 0.66 mM KH2PO4, 0.28 mM MgSO4, 1 mM MgCl2, 2.7 mM NaHCO3, 1 mM Kynurenic acid and 0.6% D-glucose.
(§2) Transversal hippocampal slices (400 μm) were prepared using a vibrating blade microtome (VT1200S; Leica Microsystems (Schweiz) AG, Heerbrugg, Switzerland) in the same buffer. Hippocampal slices were individually placed on a membrane insert (Millicell Culture Plate Inserts, 0.4 μm) and cultivated at 35° C., 5% CO2, 95% humidity in a medium containing a 1:1 mixture of BME and MEM (both from Invitrogen) containing 25% heat-inactivated horse serum, 1× GlutaMAX, 1× Penicillin/Streptomycin, 0.6% glucose and 1 mM Kynurenic acid (Stoppini, Buchs and Muller (1991), J. Neurosci. Methods, 37(2), 173-82).
(§3) After 48 h in culture, synaptic NMDA receptors were activated by addition of thyme extract or its constituents for 15 min in 140 mM NaCl, 5 mM KCl, 1.3 mM CaCl2, 25 mM HEPES (pH 7.3), 33 mM D-glucose and 0.02 mM bicuculline methiodide. […] An additional positive control comprised the addition of 200 μM glycine to sister cultures. After the treatments, sections were washed and fixed for immunohistochemistry. Markers of enhanced synaptic activity, normally associated with long-term potentiation, representing an ex vivo model of learning and memory were quantitated (see Table 2, below).
(§4) Table 2. […]. The activation of any of these markers (or a combination thereof) is observed in classical LTP experiments.
(§5) Treatment of hippocampal cultures with thyme extracts as well as with both p-cymene and thymol induced biochemical markers typical for LTP (pCREB: activated form of the cAMP response element binding protein; pMAPK: activated form of the mitogen-activated protein kinase; GLUR1: cell surface presence of AMPA receptor 1).

pMAPK = assay: Hippocampal slice cultures, synaptic marker pMAPK (immunohistochemistry); assay type: cell-based, Wistar rats; conditions: 15 min treatment of slices after 48 h culture; compared to sister cultures treated with buffer
Experimental: as §1, §2, §3, §4, §5

GluR1 = assay: Hippocampal slice cultures, synaptic marker GluR1 (cell surface AMPA receptor 1); assay type: cell-based, Wistar rats; conditions: 15 min treatment of slices after 48 h culture; compared to sister cultures treated with buffer
Experimental: as §1, §2, §3, §4, §5

NMDA receptor [2] = conditions: mouse hippocampal slice preparation; Bergeron et al 1998; cited from earlier work
NMDA receptor [3] = conditions: rat hippocampal slice preparation; Bergeron et al 1998; cited from earlier work
adult mice [4] = conditions: systemic administration, Kinney et al 2003; cited from earlier work
adult mice [5] = conditions: systemic administration, Kinney et al 2003; cited from earlier work; remark: listed apart in the source

| Molecule | IC50 for tritiated glycine uptake [1] | pCREB relative activation (pCREB) | pMAPK relative activation (pMAPK) | GluR1 relative activation (symbol) (GluR1) | IC50 [1] | other results |
| --- | --- | --- | --- | --- | --- | --- |
| C=CC(C)(O)CCC=C(C)C (stereo not shown) [Linalool] | inactive | ± | ± | ± | – | – |
| CN(CCC(Oc1ccc(-c2ccccc2)cc1)c1ccc(F)cc1)CC(=O)O (stereo not shown) [NFPS, N-[3-(4′-fluorophenyl)-3-(4′-phenylphenoxy)]propylsarcosine] | – | – | – | – | – | NMDA receptor responses in CA1 pyramidal cells (NMDA receptor [2]): enhanced; NMDA receptor responses in CA1 pyramidal cells (NMDA receptor [3]): enhanced; LTP in the dentate gyrus (adult mice [4]): increased; Prepulse inhibition of the acoustic startle response (adult mice [5]): enhanced |
| Cc1ccc(C(C)C)cc1 [P-Cymene] | inactive | ++ | ++++ | ± | – | – |
| CNCC(=O)O [Sarcosine, reference compound] | – | – | – | – | 0.0359 µM | – |
| Cc1ccc(C(C)C)c(O)c1 [Thymol] | – | ++++ | – | – | 13.6 µM | GluR1 relative activation (GluR1): 250-767% |
| Caryophyllene | inactive | ± | ± | – | – | – |
